Measurements reported in patent US20220106547A1, “COMPOSITIONS AND METHODS OF USING PARTIAL GEL LAYERS IN A MICROFLUIDIC DEVICE” (Emulate, Inc., priority 2019, published 2022).

What was measured:
human neutrophils = test: Neutrophil recruitment/adhesion in HRV infected Airway Chips; assay type: cell-based
Description: In one embodiment, the present invention contemplates a method for reducing neutrophil adhesion using an IL-13 inhibitor. In one embodiment, the IL-13 inhibitor is a CXCR2 antagonist. In one embodiment, the IL-13 inhibitor is MK-7123. In one embodiment, the neutrophil adhesion is reduced by approximately seventy-five (75) percent (%). In one embodiment, the IL-13 recruits neutrophils by approximately two-fold.
This response was accompanied by a reduction in neutrophil velocity. FIG. 95A, 95B. Also observed was a significant twofold increase in neutrophil recruited between HRV infected chips and infected chips in presence of IL-13 (953 vs 1999; p<0.001). FIG. 95A. […] FIG. 95C.

[1] = system: primary human hepatocytes; conditions: 48 hrs
Description: To this purpose we used fluorometric assays for biochemical markers of liver function, including albumin, cholesterol, glucose, and glycogen (FIG. 77A-B).
Liver-Chip culture. Liver-Chip culture was established according to our previously published protocol^74. […] Extracellular matrix sandwiching and composition in the Liver-Chip was optimized to support BC integrity (FIG. 81A-B and method sections below). On the other side of the membrane (the lower chamber of the chip) human primary LSECs (3 million cells/mL) and KCs (0.5 million cells/mL) were seeded to mimic the hepatic sinusoid architecture (FIG. 76A). The two cell compartments were perfused independently, and flow rates were optimized to enable optimal survival and maturation of the different cell types ref^74. In the Quad Liver-Chip experiments, primary human hepatic stellate cells (50,000 cells/mL) were mixed within the collagen coating (FibriCol at 0.5 mg/ml concentration) and add to activated chips and let incubate overnight before hepatocytes seeding on the top of the collagen and HSC mix. The seeded hepatocytes were overlaid with ECM as described in FIG. 81A-B and below, and maintained in William's E Medium (WEM) containing Glutamax (Gibco), ITS+ (Corning), dexamethasone (Sigma-Aldrich), ascorbic acid (Sigma-Aldrich), fetal bovine serum (Sigma-Aldrich), and penicillin/streptomycin (Sigma-Aldrich), and incubated at 37° C., 5% CO2. The vascular channel of the Liver-Chip was maintained with human endothelial media (Emulate, Inc.). Two days after seeding, the Liver-Chips were connected to the Human Emulation System™ (Emulate, Inc.) and both chip channels were perfused at 30 μL/h to provide a continuous supply of fresh medium for the duration of the experiments. At day 5 in culture, the basal medium was modified to DMEM low glucose (1 g/L) supplemented with non-essential amino acids solution (NEAA, 1:200 dilution), glutaMAX (Thermo Fisher) ascorbic acid (Sigma-Aldrich) and penicillin/streptomycin (Sigma-Aldrich). Moreover, ITS+ premix (Corning) was replaced by ITS (GIBCO, 1:500 dilution) in order to achieve a more physiological relevant concentration of insulin, while the FBS supplement was removed. Treatment. […] The Liver-Chip was maintained for 48h in treatment medium and either assayed or allowed to recover for 5 days in basal medium. Optimization of Liver-Chip ECM for BC integrity. We iteratively modified the original ECM coating protocol^74 in order to improve BC formation. Five different combinations of ECM composition and deposition strategy were tested (FIG. 82B), where ECM-A denoted the original protocol. Briefly, for ECM-A, top and bottom channels were coated by incubating with 100 μg/mL rat tail collagen-I (Corning) and 25 μ/mL fibronectin (Gibco) overnight at 37° C. […]

[2] = system: bile canaliculi network of primary human hepatocytes; test: Bile canaliculi (BC) network integrity, MRP-2 staining, Liver-Chip; assay type: cell-based; conditions: 0.08% ethanol with or without LPS, 48 h
Description: A Tri-culture configuration includes primary hepatocytes cultured in the upper channel and primary liver sinusoidal endothelial cells (LSECs) cultured on the opposite side of the membrane, i.e. in the lower channel, along with Kupffer cells. As this design recapitulates elements of the hepatic sinusoid microenvironment ref^17, we were interested in recreating the bile canaliculi (BC) network that is established between neighboring hepatocytes. […] The latter together with the lack of a reproducible, quantitative manner to assess the integrity of the BC network have precluded the use of this clinical endpoint in preclinical studies. […] Based on these findings, we assessed the impact of various ECM scaffold compositions and patterning methods on BC integrity by using quantitative metrics to describe the MRP-2 stained BC network topology (FIG. 82A-E: Table 8. […]
To assess the effect of each ECM protocol on BC network formation, we quantified the MRP-2 stained BC network topology (see method sections on IF staining and Image analysis for details). […]
For measuring bile canaliculi network properties, MRP-2 stained chips were imaged at 40× using a confocal point-scanning microscope (Zeiss LSM880, Airyscan). […] In each field of view, a z-stack was recorded and combined using maximal intensity projection in order to fully capture the bile canaliculi network. […]

[3] = system: primary human hepatocytes; test: Lipid droplet accumulation (AdipoRed) in ALD Liver-Chip; conditions: ethanol 0.08% or 0.16%, oleic acid 1 μg/ml, up to 48 hrs
[4] = system: primary human hepatocytes; test: Oxidative stress (MitoSox ROS events) in Liver-Chip hepatocytes; assay type: cell-based; conditions: 48 h exposure
Description: Having shown that at least one embodiment of a Liver-Chip responds to alcohol, we explored the possibility of modeling the progression of ALD, as per the two- or one-hit and second-hit hypothesis, such that simple steatosis induced by alcohol requires a second hit (insult) for progression of ALD to ASH ref^69. Ethanol consumption in humans compromises the intestinal barrier function resulting in increased permeability to intestinal endotoxins, e.g. bacterial lipopolysaccharide (LPS), from the gut to the liver via the portal vein ref^18. Such a permeabalized leaky barrier is considered one of the “second hits” in the progression of ALD to inflammation (ASH) ref^70. Therefore, we tested whether exposure to ethanol and LPS together would worsen the Liver-Chip pathology.
Clinical data have shown the potential of the steatotic liver to repair the steatotic injury following timely abstinence from alcohol or with diet modifications ref^19. Thus, we assessed the responses of the “alcoholic” Liver-Chip to withdrawal from ethanol or ethanol+LPS. Treatment of the Liver-Chip for 48 h with ethanol or ethanol+LPS as above, was followed by a 5 day-long treatment-free “recovery” period. […]
Live cell staining. […] The stained chips were imaged using either an Olympus fluorescence microscope (IX83) or Zeiss confocal microscope (LSM880), and were de-blurred with Olympus cellSens software. […]

[5] = system: primary human hepatocytes; conditions: 0.08% and 0.16% pooled vs vehicle
lung cells = test: Viability/differentiation biomarker scoring of airway chip culture conditions; assay type: cell-based; conditions: airway S1 chip culture
Description: In one embodiment, the present invention contemplates a method comprising scoring at least one cell biomarker and determining a viable and differentiated cell. For example, specific quantitative scores have been assigned to a set of cell biomarkers for viability and differentiation during chip cell culture maturation includes, but is not limited to, cell death (1), ciliation (2) cell attachment (3) cell movement/shape (4), cell overgrowth (5), cell invasion (6). See, FIG. 14.
As depicted, the score value increases as the viability/differentiation relevance of the cell biomarker decreases. In one embodiment, the cell death biomarker score value increases in proportion to increased cell death. In one embodiment, the ciliation biomarker score value increases in proportion to deceased ciliation. In one embodiment, the cell attachment biomarker score value increases in proportion to decreased cell attachment. In one embodiment, the cell movement/shape biomarker score value increases with decreased cell movement/shape. In one embodiment, the cell overgrowth biomarker score value increases with increased cell overgrowth. […]
Each coating can be seen to result in different score values that are independent of location in the cell culture device (e.g., Zoe). […] It is known that retinoic acid (RA) is readily absorbed by most microchip substrates. […]

[6] = system: mucociliary bronchiolar epithelium (hAECs); test: Effect of IL-13 on goblet cells and cilia beating frequency in Airway Chip; assay type: cell-based, human; conditions: IL-13 100 ng/mL, 7 days
Method: Cilia beating frequency (CBF) was measured by applying Fourier spectral analysis to high-speed video recordings of the ciliated surfaces. Using an inverted phase contrast microscope, the ciliated surfaces were recorded at 190-200 frames per second and at a resolution of 512 by 512 pixels, which corresponded to a field of view of 166 by 166 μm^2 (0.32 μm per pixel). Cilia beating was recorded at multiple randomly chosen fields of view (FOV) for each chip.
A first step of video processing was to identify regions of ciliary beating by computing a normalized standard deviation of an intensity value for each pixel across all frames. […] FIG. 104A-B.
In a further step, areas with ciliary motion were thresholded and the movie field of view was divided into 289 windows (ca. 10×10 μm^2 in size). For each window, a random set comprising 70% of all pixels with detected motion was further analyzed to detect the dominant beat frequency. For each sampled pixel, ciliary beat frequency was determined from a time-dependent fluctuation of pixel brightness reflecting the periodicities of the ciliary movement. A bandwidth filter (e.g., approximately 1 to 30 Hz) was applied to each pixel signal to remove noise. […] Thus, for each FOV, the number of measured CBFs was determined by the number of windows with usable signals (e.g., 289 windows). […]

**Q.** How did the “reduction of neutrophil adhesion” value (human neutrophils; stated as embodiment, MK-7123 10 μM in FIG. 95) turn out when `CC[C@@H](Nc1c(Nc2cccc(C(=O)N(C)C)c2O)c(=O)c1=O)c1ccc(C)o1` [MK-7123, reference compound] was run?
**A.** Its value is roughly 75%.

**Q.** `CCO` [ethanol] was tested. Which “glycogen storage in cell lysates” value ([1]; 0.08% ethanol) did it give?
**A.** The value was “trend for increase”.

**Q.** And the albumin release [1]?
**A.** Its albumin release is “not affected”.

**Q.** What about the cholesterol levels ([1]; human-relevant BACs, effluent and cell lysates) of the same compound?
**A.** The cholesterol levels was “significant increase in cholesterol levels”.

**Q.** What about the glucose release ([1]; except toxic concentrations above 0.32%) of the same compound?
**A.** The glucose release was “no changes were detected”.

**Q.** What about the “dilated BC (cholestatic) areas” value [2] of the same compound?
**A.** The value was “areas of markedly dilated BCs”.

**Q.** What about the “steatosis (hepatic lipid accumulation)” value [3] of the same compound?
**A.** Its value is “steatosis was induced”.

**Q.** What about the “ROS events per nuclei” value [4] of the same compound?
**A.** Its value is “dose-dependent increase in ROS events”.

**Q.** What about the “downregulated DE genes” value [5] of the same compound?
**A.** Its value is 36.

**Q.** What about the “upregulated DE genes” value [5] of the same compound?
**A.** Its value is 87.

**Q.** And the “differentially expressed (DE) genes” value ([5]; adj. p<0.05, |log2FC|>1)?
**A.** The value was 123.

**Q.** Which “steatosis (hepatic lipid accumulation)” value [3] does the source give for `CCCCCCCC/C=C\CCCCCCCC(=O)O` [oleic acid, reference compound] here?
**A.** Its value is “steatosis was induced”.

**Q.** Which “cell viability and differentiation (scoring / morphological assessment)” value (lung cells) does the source give for “Bovine Serum Albumin (BSA): membrane coating layer of bovine serum albumin” here?
**A.** The value was “found to support the most viable and differentiated cells”.

**Q.** How did the “reduction in cilia beating frequency” value [6] turn out when IL-13: Th2 cytokine IL-13 was run?
**A.** Its value is 14.4%.

**Q.** And the “goblet cells, total area” value ([6]; 16.5% without IL-13)?
**A.** Its value is 50.3%.

**Q.** What about the neutrophil recruited (human neutrophils; HRV infected chips in presence of IL-13, 953 in HRV infected chips alone) of the same compound?
**A.** The neutrophil recruited was 1999.
